Assay results as given in US20090203644A1, “Compositions for treating and/or preventing diseases characterized by the presence of metal ions” (GrenPharma LLC, priority 2004, published 2009).
Entries after “also recorded” stand apart in the source; their conditions may differ. Structures can show the parent of a compound that is named as a salt. Where two headings read alike, the source gives them in different places.

What was measured:
[1] = tested on: Caco-2 cells
[2] = target: T1, A-beta1-42 peptide (Homo sapiens, UniProt P05067); assay: CD: reversal of the aluminum effect on the A-beta1-42 peptide spectrum (Example 3); format: biochemical
T1 sequence (P05067 672-713): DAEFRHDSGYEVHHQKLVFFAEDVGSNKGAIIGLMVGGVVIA

[3] = tested on: A-beta peptide; set-up: species or system human
[4] = target: A-beta peptide fragment (Homo sapiens, UniProt P05067); assay: CD helix-coil reversal and pretreatment experiments (Example 11); format: biochemical
Chain of A-beta peptide fragment (P05067 672-713): as above

[5] = tested on: Caco-2 cells; details: Caco-2
[6] = tested on: MDCK cells
[7] = tested on: human subject; details: in vivo, po
[8] = target: T2, NF-M17 (Homo sapiens, UniProt P07197); assay: CD titration: restoration of the CD spectrum of NF-M17 exposed to aluminum; format: biochemical
T2 construct: a seventeen amino acid region of the human neurofilament mid-sized subunit protein, NF-M17; host or cells: chemical synthesis

[9] = target: T1, A-beta1-42 peptide; format: biochemical
[10] = tested on: A-beta antigen; set-up: species or system human
[11] = target: peptide 1 (A-beta1-42 peptide) (Homo sapiens, UniProt P05067); format: biochemical
Chain of peptide 1 (A-beta1-42 peptide) (P05067 672-713): as above

Q: How did the “transport across the Caco-2 cells” value [1] turn out when dichlorosilacyclobutane [DCSCB] was run?
A: significant amount of transport

Q: And the “restoration of the original CD spectrum of the peptide after exposure to aluminum” value (from here on “restoration”) [2]?
A: at least partially restored

Q: How did the “restoration” value ([2]; 8 to 12 equivalents of aluminum) turn out when CC(=O)O[Si](OC(C)=O)(OC(C)=O)OC(C)=O [TAS, tetraacetooxysilane] was run?
A: at least partially restored

Q: Which “total extracted” value [3] does the source give for CC(C#N)C[Si](C)(Cl)Cl (stereo not drawn) [CPMS, 2-cyanopropylmethyldichlorosilane] here?
A: 5.3 fmol

Q: What about the “recovery of helicity in Al-denatured peptide / reversal of aluminum-induced denaturation (CD)” value [4] of the same compound?
A: appeared to reverse aluminum-induced denaturation

Q: And the “permeation across Caco-2 cells compared with mannitol” value [5]?
A: approximately three times more efficiently

Q: And the “Permeation Coefficient (cm/sec) Mean ± SD, where applicable” value ([5]; human)?
A: 6.1 ± 1.7 × 10^−6 cm/sec

Q: What about the “Total Permeation Coefficient (cm/sec) Mean ± SD, where applicable, Caco-2” value ([5]; human) of the same compound?
A: 6.1 ± 1.7 × 10^−6 cm/sec

Q: And the “Total Permeation Coefficient (cm/sec) Mean ± SD, where applicable, MDCK” value ([6]; dog)?
A: 1.2e-06 cm/s

Q: How did the “effect on development of neurofibrillary tangles and senile plaques” value [7] turn out when C[Si](C)(Cl)CC[Si](C)(C)Cl was run?
A: interferes with further development of neurofibrillary tangles and senile plaques

Q: For CN(C)[Si](N(C)C)(N(C)C)N(C)C [tetrakis, tetrakis(dimethylamino)silane], which “restoration” value [2] is on record?
A: at least partially restored

Q: For O[Si](O)(c1ccccc1)c1ccccc1 [DPSD, diphenylsilandiol], which “Restore original spectra?” value ([8]; CD spectrum of NF-M17 with 8 equivalents of aluminum, titration up to 32 equivalents) is on record?
A: did not restore; also recorded: (DMSO interfered with spectra)

Q: For NCCC[Si](O)(O)O [APST, 3-aminopropylsilantriol], which “Restore original spectra?” value [8] is on record?
A: Yes

Q: What about the “chelation of aluminum compared to sodium orthosilicate” value [8] of the same compound?
A: improved chelation of aluminum

Q: Which “Restore original spectra?” value [8] does the source give for CC(C)(C)[Si](C)(C)O [TBDMS, tert-butyldimethylsilanol] here?
A: did not restore and No

Q: For triethoxysilylbutyronitrile, which “restoration” value [2] is on record?
A: reverses aluminum-induced denaturation

Q: What about the “crossing of the epithelial barrier in the Caco-2 model” value [5] of the same compound?
A: crossed the epithelial barrier efficiently

Q: And the “permeation across Caco-2 cells compared with mannitol” value [5]?
A: at least four times greater

Q: Which results are given for CCC(C#N)C[Si](C)(Cl)Cl (stereo not drawn) [CBMS, 2-cyanobutylmethyldichlorosilane]?
A: total extracted [3]: 3.6 fmol; recovery of helicity in Al-denatured peptide / reversal of aluminum-induced denaturation (CD) [4]: appeared to reverse aluminum-induced denaturation; Permeation Coefficient (cm/sec) Mean ± SD, where applicable ([5]; human): 6.5e-06 cm/s; Total Permeation Coefficient (cm/sec) Mean ± SD, where applicable, Caco-2 ([5]; human): 6.5e-06 cm/s; Total Permeation Coefficient (cm/sec) Mean ± SD, where applicable, MDCK ([6]; dog): 1.5e-06 cm/s

Q: C[Si](Cl)(Cl)CC[Si](C)(Cl)Cl [1,2-(methyldichlorosilyl)ethane] was tested. Which “permeation across Caco-2 cells compared with mannitol” value [5] did it give?
A: at least four times greater

Q: Which “Restore original spectra?” value [8] does the source give for CC[Si](O)(CC)CC [TES, triethylsilanol] here?
A: did not restore and No

Q: And the “restoration” value [2]?
A: at least partially restored

Q: With C[Si](Cl)(Cl)c1ccccc1 [MPDS, methylphenyldichlorosilane] as the compound, how does the “Restore original spectra?” value [8] read?
A: Yes

Q: What about the “equivalents at which the CD spectrum of NF-M17/aluminum is restored to (similar to) its original shape” value [8] of the same compound?
A: around 32 equivalents

Q: For trihydroxysilylmethyl phosphonate, which “crossing of the epithelial barrier in the Caco-2 model” value [5] is on record?
A: permeated less efficiently

Q: [Fe+2] [iron (II)] was tested. Which “effect on the A-beta1-42 CD spectrum (disruption of the alpha helix)” value [9] did it give?
A: minor or no effects

Q: For “sodium metasilicate nonahydrate [reference compound]”, which “equivalents at which some return / beginning of return of the CD curve to its original shape is seen” value [8] is on record?
A: about 32 equivalents

Q: For “(dichloro)methylsilylbutyronitrile [DCMSBN]”, which “Restore original spectra?” value [8] is on record?
A: Yes

Q: And the “equivalents at which the CD spectrum of NF-M17/aluminum is restored to (similar to) its original shape” value [8]?
A: around 32 equivalents

Q: And the “transport across Caco-2 cells, FIG. 29B compounds compared with FIG. 29A compounds” value [1]?
A: more transport

Q: What about the “transport across the Caco-2 cells” value [1] of the same compound?
A: significant amount of transport

Q: What about the “restoration” value [2] of the same compound?
A: at least partially restored

Q: For Trihydroxysilylmethyl phosphonate, which “permeation across Caco-2 cells compared with mannitol” value [5] is on record?
A: slower permeation

Q: [Zn] [Zinc] was tested. Which “effect on the A-beta1-42 CD spectrum (disruption of the alpha helix)” value [9] did it give?
A: minor or no effects

Q: Which “transport across the Caco-2 cells” value [1] does the source give for C1CC[Si]2(CCCCO2)OC1 [SDSU, 1,7-dioxa-6-sila-spiro[5.5]undecane] here?
A: significant amount of transport

Q: What about the “restoration” value [2] of the same compound?
A: at least partially restored

Q: Which results are given for CC[Si](Cl)(Cl)CC [DCDES, dichlorodiethylsilane]?
A: Restore original spectra? [8]: Yes; equivalents at which the CD spectrum of NF-M17/aluminum is restored to (similar to) its original shape [8]: around 32 equivalents; restoration of the original CD spectrum of the peptide after exposure to aluminum [2]: at least partially restored

Q: How did the “equivalents at which some return / beginning of return of the CD curve to its original shape is seen” value [8] turn out when “sodium orthosilicate [reference compound]” was run?
A: 4 equivalents

Q: And the “equivalents at which the CD spectrum of NF-M17/aluminum is restored to (similar to) its original shape” value [8]?
A: around 16 equivalents

Q: What about the “restoration” value [2] of the same compound?
A: at least partially restored

Q: With CC[Si](O)(CC)Cc1ccccc1 [BDS, benzyldiethylsilanol] as the compound, how does the “Restore original spectra?” value [8] read?
A: did not restore and No

Q: Which “Restore original spectra?” value [8] does the source give for CCCCCCCC[Si](Cl)(Cl)Cl [OTCS, n-octyltrichlorosilane] here?
A: did not restore; also recorded: (gelation of OTCS)

Q: N#CCCC[Si](Cl)(Cl)Cl [CPTCS, 3-cyanopropyltrichlorosilane] was tested. Which “Restore original spectra?” value [8] did it give?
A: Yes

Q: What about the “equivalents at which the CD spectrum of NF-M17/aluminum is restored to (similar to) its original shape” value [8] of the same compound?
A: around 32 equivalents

Q: What about the “restoration” value [2] of the same compound?
A: able to restore the CD spectrum

Q: What about the “reversal of the effects of aluminum on the CD spectrum of the peptide” value [2] of the same compound?
A: Moderate reversal; also recorded: almost full reversal

Q: Which “restoration” value [2] does the source give for triethoxysilylpropionitrile [TESP] here?
A: at least partially restored

Q: With CC(C)[Si](Cl)(Cl)C(C)C [DCDIPS, dichlorodiisopropylsilane] as the compound, how does the “Restore original spectra?” value [8] read?
A: Yes

Q: What about the “equivalents at which the CD spectrum of NF-M17/aluminum is restored to (similar to) its original shape” value [8] of the same compound?
A: around 32 equivalents

Q: What about the “restoration” value [2] of the same compound?
A: at least partially restored

Q: CCCCCC[Si](C)(Cl)Cl [HMDS, hexylmethyldichlorosilane] was tested. Which “Restore original spectra?” value [8] did it give?
A: Yes

Q: What about the “equivalents at which the CD spectrum of NF-M17/aluminum is restored to (similar to) its original shape” value [8] of the same compound?
A: around 32 equivalents

Q: What about the “restoration” value [2] of the same compound?
A: at least partially restored

Q: Which “Cell Permeation Coefficient (cm/sec) Caco-2” value [5] does the source give for “trihydroxysilylmethyl phosphonate [TSMP]” here?
A: 2e-07 cm/s

Q: What about the “Permeation Coefficient (cm/sec) Mean ± SD, where applicable” value [5] of the same compound?
A: 1.9 ± 1.5 × 10^−7 cm/sec

Q: And the “Total Permeation Coefficient (cm/sec) Mean ± SD, where applicable, Caco-2” value [5]?
A: 1.9 ± 1.5 × 10^−7 cm/sec

Q: What about the “permeation across Caco-2 cells compared with mannitol” value [5] of the same compound?
A: slower permeation

Q: What about the “Cell Permeation Coefficient (cm/sec) MDCK” value [6] of the same compound?
A: 5.4e-07 cm/s

Q: And the “Total Permeation Coefficient (cm/sec) Mean ± SD, where applicable, MDCK” value [6]?
A: 5.2 ± 7.0 × 10^−7 cm/sec

Q: And the “permeation across MDCK cells compared with mannitol” value [6]?
A: slower permeation

Q: With Cl [HCl, hydrochloric acid, reference compound] as the compound, how does the “Total Extracted (fmol)” value [10] read?
A: no detectable antigen

Q: What about the “reversal of / protection from metal-induced loss of helix in TFE solutions (CD)” value ([4]; polyvalent metal ions as perchlorate salts) of the same compound?
A: can reverse the loss of helix

Q: And the “reversing the metal-induced helix-coil transition” value ([11]; acid, product of hydrolysis of chlorosilanes)?
A: itself effective for reversing the helix-coil transition

Q: What does the source list for triethoxysilylbutyronitrile [TESB]?
A: transport across Caco-2 cells, FIG. 29B compounds compared with FIG. 29A compounds [1]: more transport; transport across the Caco-2 cells [1]: significant amount of transport; recovery of helicity in Al-denatured peptide / reversal of aluminum-induced denaturation (CD) [4]: appeared to reverse aluminum-induced denaturation; restoration of the original CD spectrum of the peptide after exposure to aluminum [2]: at least partially restored; Cell Permeation Coefficient (cm/sec) Caco-2 [5]: 3.7e-05 cm/s; Permeation Coefficient (cm/sec) Mean ± SD, where applicable [5]: 3e-05 cm/s; Total Permeation Coefficient (cm/sec) Mean ± SD, where applicable, Caco-2 [5]: 2.8 ± 1.8 × 10^−5 cm/sec; cell permeation coefficient compared with mannitol, Caco-2 [5]: at least ten times greater; crossing of the epithelial barrier in the Caco-2 model [5]: cross the epithelial barrier relatively efficiently; permeation across Caco-2 cells compared with mannitol [5]: at least ten times greater; Cell Permeation Coefficient (cm/sec) MDCK [6]: 2.7e-05 cm/s; Total Permeation Coefficient (cm/sec) Mean ± SD, where applicable, MDCK [6]: 2.2 ± 1.4 × 10^−5 cm/sec; cell permeation coefficient compared with mannitol, MDCK [6]: at least ten times greater; crossing of the epithelial barrier in the MDCK model [6]: cross the epithelial barrier relatively efficiently; permeation across MDCK cells compared with mannitol [6]: at least ten times greater

Q: What does the source list for C[Si](O)(O)CCCC#N [compound 3f, (dihydroxy)methyl(3-cyanopropyl)silane]?
A: recovery of the CD spectrum on titration of iron-complexed peptide 1 [11]: dosage effect is evident, but non-linear; stability, solubility and effectiveness in reversing and/or preventing the effect of metal ion on helix formation [11]: efficient combination of stability, solubility, and effectiveness; titration point showing the greatest degree of recovery [11]: 0.25 eq.
